Measurements reported in ChEMBL document CHEMBL1201862, “PubChem BioAssay data set” (2004).
Calls of active or inactive are those of the source.

Key:
HEK293 [1] = assay: Fluorescence-based counterscreen for potentiators or agonists of NPY-Y2: cell-based high-throughput dose response assay to identify inhibitors of cyclic nucleotide gated ion channel (CNGC) activity. In this assay, the parental HEK293 cell line transfected with a cyclic-nucleotide gated ion channel (CNGC)-based cAMP sensor is used to measure inhibition of isoproterenol-induced CNGC activity by test compound.; assay type: functional; details: Homo sapiens
[2] = target: T1, Neuropeptide Y receptor type 1 (Homo sapiens, UniProt P25929); assay: Fluorescence-based counterscreen for agonists of NPY-Y2: cell-based high-throughput dose response assay for agonists of NPY-Y1.; assay type: functional
T1 sequence (P25929 whole entry): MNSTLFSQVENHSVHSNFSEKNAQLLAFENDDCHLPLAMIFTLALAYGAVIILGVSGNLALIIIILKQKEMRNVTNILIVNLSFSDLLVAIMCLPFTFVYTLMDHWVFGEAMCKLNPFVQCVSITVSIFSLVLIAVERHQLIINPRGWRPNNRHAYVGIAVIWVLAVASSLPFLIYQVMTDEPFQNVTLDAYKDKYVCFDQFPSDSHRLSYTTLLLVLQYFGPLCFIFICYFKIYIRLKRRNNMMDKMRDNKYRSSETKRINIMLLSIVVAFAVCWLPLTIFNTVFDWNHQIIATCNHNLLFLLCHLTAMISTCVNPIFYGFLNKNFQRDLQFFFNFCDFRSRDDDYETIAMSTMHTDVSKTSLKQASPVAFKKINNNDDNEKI

[3] = target: T2, Neuropeptide Y receptor type 2 (Homo sapiens, UniProt P49146); assay: Fluorescence-based cell-based high-throughput dose response assay for agonists of NPY-Y2. [Related pubchem assays: 1703 (Screening assay (CNGC inhibitors).), 1359 (Screening assay (NPY-Y2 potentiators or agonists).), 1304 (Screening assay (NPY-Y1 potentiators or agonists).), 1710 (Screening assay (NPY-Y2 agonists).), 1791 (Summary AID.)]; assay type: functional
T2 sequence (P49146 whole entry): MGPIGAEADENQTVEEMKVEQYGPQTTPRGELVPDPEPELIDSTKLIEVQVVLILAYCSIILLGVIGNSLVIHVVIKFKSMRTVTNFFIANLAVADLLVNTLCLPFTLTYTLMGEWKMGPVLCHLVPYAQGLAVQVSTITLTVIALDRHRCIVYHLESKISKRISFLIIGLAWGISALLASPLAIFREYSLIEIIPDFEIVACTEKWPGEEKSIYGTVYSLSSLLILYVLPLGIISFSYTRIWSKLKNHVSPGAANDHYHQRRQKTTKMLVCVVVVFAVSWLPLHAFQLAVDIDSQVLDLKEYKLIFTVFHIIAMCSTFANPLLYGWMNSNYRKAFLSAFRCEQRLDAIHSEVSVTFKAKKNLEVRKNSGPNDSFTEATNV

[4] = target: T3, High affinity choline transporter 1 (Homo sapiens, UniProt Q9GZV3); assay: CHT inhibitors, dose response, cell-based, 5-point CRC, membrane potential dye (AID 504840); assay type: functional
T3 sequence (Q9GZV3 whole entry): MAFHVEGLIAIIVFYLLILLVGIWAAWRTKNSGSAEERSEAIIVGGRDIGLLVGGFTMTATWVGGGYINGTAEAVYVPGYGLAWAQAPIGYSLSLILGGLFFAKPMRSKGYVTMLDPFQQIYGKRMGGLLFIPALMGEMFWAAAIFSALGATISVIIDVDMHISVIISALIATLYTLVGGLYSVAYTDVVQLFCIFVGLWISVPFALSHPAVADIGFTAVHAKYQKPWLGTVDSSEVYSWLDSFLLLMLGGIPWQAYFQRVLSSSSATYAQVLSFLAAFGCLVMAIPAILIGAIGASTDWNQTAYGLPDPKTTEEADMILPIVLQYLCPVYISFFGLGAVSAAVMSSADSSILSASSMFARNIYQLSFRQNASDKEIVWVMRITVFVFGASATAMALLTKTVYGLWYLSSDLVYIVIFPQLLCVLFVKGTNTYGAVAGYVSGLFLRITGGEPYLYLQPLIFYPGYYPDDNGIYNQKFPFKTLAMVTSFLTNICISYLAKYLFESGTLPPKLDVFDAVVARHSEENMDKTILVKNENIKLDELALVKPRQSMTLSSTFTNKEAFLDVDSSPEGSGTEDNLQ

[5] = Shn3 3'UTR reporter inhibitors, dose response, cell-based, Clone20 osteoblasts, firefly luciferase, cherry-picked (AID 624132); assay type: functional;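 also: firefly luciferase luminescence from reporter carrying the Shn3 3'UTR in osteoblasts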
[6] = control 3'UTR Renilla luciferase suppression, dose response, counter-screen for Shn3 inhibitor project, cell-based, Clone20-Shn3RL, cherry-picked (AID 624133); assay type: functional
[7] = target: T3, High affinity choline transporter 1; assay: CHT inhibitors, dose response, cell-based, 10-point CRC, membrane potential dye (AID 588401); assay type: functional;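 also: membrane potential dye fluorescence of choline-evoked depolarization via CHT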
[8] = Intein inhibitors as potential Tuberculosis drugs, a cytotoxicity screen. [Related pubchem assays (depositor defined):AID2221, AID2223, AID434968, AID435010, AID449749, AID449750, AID489010]; assay type: functional
[9] = target: T4, Heat shock factor protein 1 (Mus musculus, UniProt P38532); assay: inhibition of MG132-induced HSE-luciferase signal, confirmation, cell-based, NIH3T3, luminescence, dose retest (AID 2382); assay type: functional;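 also: NIH3T3 fibroblasts with HSF1-driven luciferase reporter stressed by proteasome inhibitor MG132; luminescence from HSF1-driven luciferase expression after 8 hours of MG132 stress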
T4 sequence (P38532 whole entry): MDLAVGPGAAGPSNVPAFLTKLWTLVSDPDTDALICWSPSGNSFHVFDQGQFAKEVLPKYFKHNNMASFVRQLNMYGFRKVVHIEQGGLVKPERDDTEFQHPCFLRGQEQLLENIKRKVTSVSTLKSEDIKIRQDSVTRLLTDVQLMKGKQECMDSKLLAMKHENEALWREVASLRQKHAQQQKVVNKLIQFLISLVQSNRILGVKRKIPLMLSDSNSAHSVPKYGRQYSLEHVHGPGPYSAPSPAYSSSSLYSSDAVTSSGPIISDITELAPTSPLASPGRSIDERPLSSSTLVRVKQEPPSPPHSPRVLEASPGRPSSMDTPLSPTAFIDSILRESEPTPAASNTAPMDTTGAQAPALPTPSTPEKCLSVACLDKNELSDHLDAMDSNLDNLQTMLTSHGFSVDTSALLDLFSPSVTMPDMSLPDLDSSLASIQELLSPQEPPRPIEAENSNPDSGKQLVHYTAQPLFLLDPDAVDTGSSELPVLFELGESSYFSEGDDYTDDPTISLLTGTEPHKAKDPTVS

[10] = target: Potassium voltage-gated channel subfamily KQT member 2 (Rattus norvegicus, UniProt O88943, W236L); assay: KCNQ2 channel potentiators, dose response, mechanism study for KCNQ2 potentiator project, cell-based, automated electrophysiology (AID 2603); assay type: functional
Chain of Potassium voltage-gated channel subfamily KQT member 2 (O88943 whole entry W236L): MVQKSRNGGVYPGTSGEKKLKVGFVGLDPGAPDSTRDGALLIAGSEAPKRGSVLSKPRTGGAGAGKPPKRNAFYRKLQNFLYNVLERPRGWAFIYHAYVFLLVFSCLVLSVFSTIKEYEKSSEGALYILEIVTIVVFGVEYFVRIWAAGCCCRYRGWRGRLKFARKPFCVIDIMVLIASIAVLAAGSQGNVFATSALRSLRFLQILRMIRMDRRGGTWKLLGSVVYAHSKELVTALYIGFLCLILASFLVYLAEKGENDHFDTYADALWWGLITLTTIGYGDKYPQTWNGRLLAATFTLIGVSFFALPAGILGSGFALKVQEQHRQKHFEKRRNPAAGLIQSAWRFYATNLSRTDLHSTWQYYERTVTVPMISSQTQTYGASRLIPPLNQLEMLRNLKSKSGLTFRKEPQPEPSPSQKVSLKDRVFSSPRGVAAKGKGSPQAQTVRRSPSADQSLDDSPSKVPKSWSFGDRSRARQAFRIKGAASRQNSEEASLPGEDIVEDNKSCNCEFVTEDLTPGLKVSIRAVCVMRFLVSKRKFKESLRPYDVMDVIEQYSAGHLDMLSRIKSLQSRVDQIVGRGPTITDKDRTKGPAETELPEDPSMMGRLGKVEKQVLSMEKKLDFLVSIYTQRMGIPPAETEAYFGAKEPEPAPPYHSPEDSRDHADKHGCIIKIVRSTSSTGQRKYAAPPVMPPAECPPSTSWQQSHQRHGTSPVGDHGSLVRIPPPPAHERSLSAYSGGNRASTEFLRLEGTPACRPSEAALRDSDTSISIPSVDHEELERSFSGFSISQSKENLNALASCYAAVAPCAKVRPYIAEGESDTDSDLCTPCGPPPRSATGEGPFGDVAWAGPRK

[11] = target: T5, Replicative DNA helicase DnaB (Mycobacterium tuberculosis, UniProt P9WMR3); assay: DnaB intein splicing inhibitors, dose response, biochemical, cell-free fluorescence (AID 449749); assay type: functional
T5 sequence (P9WMR3 whole entry): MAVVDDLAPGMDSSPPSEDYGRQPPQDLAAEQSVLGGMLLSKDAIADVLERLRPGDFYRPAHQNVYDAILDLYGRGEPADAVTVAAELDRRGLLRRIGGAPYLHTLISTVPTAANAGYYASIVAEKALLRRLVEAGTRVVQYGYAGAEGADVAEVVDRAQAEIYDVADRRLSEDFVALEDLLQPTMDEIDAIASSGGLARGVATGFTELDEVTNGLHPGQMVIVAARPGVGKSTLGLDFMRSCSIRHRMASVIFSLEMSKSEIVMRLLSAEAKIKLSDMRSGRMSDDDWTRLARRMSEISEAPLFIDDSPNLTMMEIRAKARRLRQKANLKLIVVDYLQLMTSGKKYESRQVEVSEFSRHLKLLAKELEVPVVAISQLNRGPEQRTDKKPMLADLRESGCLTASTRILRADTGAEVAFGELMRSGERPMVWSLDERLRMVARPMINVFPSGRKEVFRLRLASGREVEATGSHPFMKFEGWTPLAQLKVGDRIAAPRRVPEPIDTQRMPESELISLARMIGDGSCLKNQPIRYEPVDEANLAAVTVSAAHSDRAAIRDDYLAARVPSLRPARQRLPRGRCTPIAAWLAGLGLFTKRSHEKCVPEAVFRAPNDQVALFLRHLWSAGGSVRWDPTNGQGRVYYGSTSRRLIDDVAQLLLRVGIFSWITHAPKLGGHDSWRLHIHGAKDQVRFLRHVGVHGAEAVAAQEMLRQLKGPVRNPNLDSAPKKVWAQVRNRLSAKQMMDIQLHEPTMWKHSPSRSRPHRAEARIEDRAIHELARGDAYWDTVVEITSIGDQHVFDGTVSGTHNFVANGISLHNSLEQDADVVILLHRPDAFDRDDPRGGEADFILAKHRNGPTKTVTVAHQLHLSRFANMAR

[12] = target: Hepatocyte nuclear factor 4-alpha (Homo sapiens, UniProt P41235); assay type: functional, cell-based;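 also: biochemical luminescence-based dose-response counterscreen measuring inhibition of HNF4 dimerization, run alongside a screen for blockers of ABHD5–perilipin-5 interaction; split luciferase complementation of HNF4 fusion proteins in cell lysate measuring dimerization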
Chain of Hepatocyte nuclear factor 4-alpha (P41235 whole entry, the tested form may be a part): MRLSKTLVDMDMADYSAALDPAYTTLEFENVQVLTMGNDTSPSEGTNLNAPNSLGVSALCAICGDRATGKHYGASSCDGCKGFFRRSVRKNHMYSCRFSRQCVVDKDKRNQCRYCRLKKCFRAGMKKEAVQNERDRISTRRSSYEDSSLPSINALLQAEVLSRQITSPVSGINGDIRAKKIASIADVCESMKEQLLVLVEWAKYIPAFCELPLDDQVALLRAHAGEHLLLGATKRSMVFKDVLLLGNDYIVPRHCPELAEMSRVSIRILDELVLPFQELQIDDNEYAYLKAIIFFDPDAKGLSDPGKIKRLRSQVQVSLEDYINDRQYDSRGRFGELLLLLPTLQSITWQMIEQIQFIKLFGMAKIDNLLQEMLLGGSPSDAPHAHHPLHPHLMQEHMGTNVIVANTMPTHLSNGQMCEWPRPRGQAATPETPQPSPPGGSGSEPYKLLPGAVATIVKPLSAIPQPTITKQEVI

Genome polyprotein = Genome polyprotein (dengue virus type 2, UniProt P29990); assay: Dengue-2 NS5 methyltransferase inhibitors, primary screen, biochemical, confirmation dose response (AID 588689); assay type: functional
Chain of Genome polyprotein (P29990 2492-3391 limits assumed): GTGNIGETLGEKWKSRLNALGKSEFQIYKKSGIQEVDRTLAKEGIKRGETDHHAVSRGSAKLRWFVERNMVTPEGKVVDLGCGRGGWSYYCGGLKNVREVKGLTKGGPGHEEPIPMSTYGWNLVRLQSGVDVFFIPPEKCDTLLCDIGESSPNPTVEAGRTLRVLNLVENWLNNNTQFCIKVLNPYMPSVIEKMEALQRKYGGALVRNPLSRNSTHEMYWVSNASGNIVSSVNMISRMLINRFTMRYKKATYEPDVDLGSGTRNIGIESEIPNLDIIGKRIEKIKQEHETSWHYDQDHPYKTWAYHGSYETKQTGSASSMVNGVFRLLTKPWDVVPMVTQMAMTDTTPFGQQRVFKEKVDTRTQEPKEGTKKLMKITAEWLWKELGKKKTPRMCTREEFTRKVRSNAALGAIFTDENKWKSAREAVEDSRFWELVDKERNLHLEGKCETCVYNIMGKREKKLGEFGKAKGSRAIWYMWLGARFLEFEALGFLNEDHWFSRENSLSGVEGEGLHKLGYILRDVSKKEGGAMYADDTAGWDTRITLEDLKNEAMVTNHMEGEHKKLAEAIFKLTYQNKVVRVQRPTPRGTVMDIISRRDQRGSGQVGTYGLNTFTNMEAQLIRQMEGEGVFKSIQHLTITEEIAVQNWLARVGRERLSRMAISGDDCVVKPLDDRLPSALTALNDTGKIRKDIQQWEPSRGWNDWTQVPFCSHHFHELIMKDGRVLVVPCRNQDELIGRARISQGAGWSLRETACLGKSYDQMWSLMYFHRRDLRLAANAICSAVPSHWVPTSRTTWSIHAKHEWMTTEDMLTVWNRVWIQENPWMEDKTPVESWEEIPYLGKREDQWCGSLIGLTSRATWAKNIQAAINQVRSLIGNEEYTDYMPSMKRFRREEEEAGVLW

Vero = Vero cell cytotoxicity, cytotoxicity control for flavivirus capping enzyme inhibitors (AID 588742); assay type: functional; details: Chlorocebus sabaeus
Protein RecA = target: T6, Protein RecA (Mycobacterium tuberculosis, UniProt P9WHJ3); assay: Fluorescence Cell-Free Homogeneous Dose Retest to Identify Inhibitors of RecA-Intein Splicing Activity. [Related pubchem assays (depositor defined):AID2097, AID2223, AID489010, AID492950]; assay type: functional
T6 sequence (P9WHJ3 whole entry): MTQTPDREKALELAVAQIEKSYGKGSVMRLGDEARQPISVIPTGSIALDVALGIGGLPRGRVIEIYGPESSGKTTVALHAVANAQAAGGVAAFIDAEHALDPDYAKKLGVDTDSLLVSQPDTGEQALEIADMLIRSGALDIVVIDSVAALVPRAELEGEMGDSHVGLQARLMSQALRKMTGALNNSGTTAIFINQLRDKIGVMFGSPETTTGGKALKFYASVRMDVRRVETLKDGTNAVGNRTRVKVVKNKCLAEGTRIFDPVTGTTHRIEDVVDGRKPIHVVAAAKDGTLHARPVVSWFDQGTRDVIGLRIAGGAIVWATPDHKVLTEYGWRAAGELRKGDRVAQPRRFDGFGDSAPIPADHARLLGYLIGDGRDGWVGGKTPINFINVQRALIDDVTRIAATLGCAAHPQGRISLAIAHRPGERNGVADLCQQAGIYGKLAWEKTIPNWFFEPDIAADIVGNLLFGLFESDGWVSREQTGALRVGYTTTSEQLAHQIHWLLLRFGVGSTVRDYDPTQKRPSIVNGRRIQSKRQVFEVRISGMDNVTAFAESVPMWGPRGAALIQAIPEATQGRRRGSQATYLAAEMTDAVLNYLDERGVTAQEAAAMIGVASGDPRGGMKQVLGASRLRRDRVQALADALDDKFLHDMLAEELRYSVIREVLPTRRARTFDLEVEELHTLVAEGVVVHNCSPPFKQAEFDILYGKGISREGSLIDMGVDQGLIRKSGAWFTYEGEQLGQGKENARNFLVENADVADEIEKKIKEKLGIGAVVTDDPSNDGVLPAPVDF

HeLa = assay: Cytotoxicity counterscreen assay for transcriptional activators of heat shock protein 70 (Hsp70). [Related pubchem assays: 1203, 1252 ]; assay type: functional; details: Homo sapiens;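 also: cells exposed to compound for 16 hours before readout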
[13] = cytotoxicity toward NIH3T3 fibroblasts, dose response, counter-screen, cell-based, ATP luminescence, mouse fibroblasts (AID 2010); assay type: functional;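 also: cells exposed to compound for about 90 hours before reading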
[14] = inhibitors of intracellular T. cruzi replication, confirmation, NIH3T3 host cells, beta-gal luminescence (AID 2044); assay type: functional, cell-based;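 also: intracellular parasites grown in NIH/3T3 mouse fibroblasts as host cells; luminescent beta-galactosidase reporter signal from transgenic T. cruzi replicating inside host cells; inhibitors lower the luminescence signal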
HEK293 [15] = assay: inhibitors of LMP1-driven NF-kB reporter, dose response, cell-based, HEK293, luciferase, cherry-pick (AID 588343); assay type: functional; details: Homo sapiens
[16] = Luminescence-based counterscreen assay for KLF5 inhibitors: dose response cell-based high throughput screening assay to identify cytotoxic compounds using the IEC-6 intestinal epithelial cell line. [Related pubchem assays: 1700 (Primary screen.), 1834 (Confirmation screen.), 1858 (Summary AID.), 1905 (Counterscreen.)]; assay type: functional
INS1 = assay: beta cell apoptosis inhibitors, cytokine rescue, dose response, luminescence, retest (AID 449756); assay type: functional, cell-based; details: Rattus norvegicus;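 also: cell death triggered by IL-1 beta plus TNF-alpha plus IFN-gamma mixture; protective hits raise ATP signal compared with cytokine alone wells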
Nonstructural protein 1 = Nonstructural protein 1 (Influenza A virus, UniProt Q194T2); assay type: functional, Influenza A virus (A/California/07/2009(H1N1))
Chain of Nonstructural protein 1 (Q194T2 whole entry): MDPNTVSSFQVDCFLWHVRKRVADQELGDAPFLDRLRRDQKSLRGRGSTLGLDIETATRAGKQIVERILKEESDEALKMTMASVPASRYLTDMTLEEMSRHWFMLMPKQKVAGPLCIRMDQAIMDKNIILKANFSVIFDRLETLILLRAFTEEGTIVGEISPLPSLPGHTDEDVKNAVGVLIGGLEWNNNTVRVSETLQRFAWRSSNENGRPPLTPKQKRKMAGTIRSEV

[17] = NIH-3T3 fibroblast cytotoxicity, dose response, cytotoxicity control, cell-based, fluorescence, Alamar Blue, secondary assay (AID 2327); assay type: functional;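 also: NIH-3T3 mouse fibroblasts cultured with fluconazole at 8 µg/mL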
[18] = C. albicans growth with fluconazole, confirmation, fluorescence, retest (AID 2467); assay type: functional, cell-based
cells [19] = assay type: functional, cell-based
cells [20] = assay type: functional, cell-based; remark: listed apart in the source
cells [21] = assay: cells
[22] = target: T1, Neuropeptide Y receptor type 1; assay type: functional
[23] = Luminescence Cell-Based Dose Retest to Confirm Inhibitors of Cancer Stem Cells. [Related pubchem assays (depositor defined):AID2717, AID2721]; assay type: functional; details: Homo sapiens
[24] = target: T2, Neuropeptide Y receptor type 2; assay type: functional, cell-based
[25] = HEK293T cell cytotoxicity, dose response, cytotoxicity control for HIV Vif inhibitor project, cherry-picks (AID 652208); assay type: functional, cell-based
[26] = HEK293 cell cytotoxicity, dose response, cytotoxicity control, dry powder samples (AID 720567); assay type: functional, cell-based

Cc1c(C(=O)O)[nH]c2ccc([N+](=O)[O-])cc12
EC50 (HEK293 [1]): 6.29 µM (active)
EC50 [2]: 6.64 µM (active)
EC50 [3]: 6.99 µM (active)

CC(C)c1nnc(NC(=O)c2nc(S(=O)(=O)Cc3ccc(F)cc3)ncc2Cl)s1
IC50 [4]: 6.08 µM (active)
AC50 [5]: 2.83 µM (active)
AC50 [6]: 4.34 µM (active)
IC50 [7]: 4.47 µM (active)
CC50 [8]: 28.1 µM (active)
EC50 [9]: 3.33 µM (active)
EC50 [10]: 4.47 µM (active)
AC50 [11]: 3.54 µM (active)
IC50 [12]: 4.69 µM (active)
IC50 (Genome polyprotein): 96 µM (active)
CC50 (Vero): 27.1 µM (active)
EC50 (Protein RecA): 2.73 µM (active)

CCOc1ccc(NC(=O)c2ccc(NC(S)=NC3CC3)cc2)cc1
CC50 (HeLa): > 99 µM (not active)

O=C(N/N=C/c1c(O)ccc2ccccc12)c1cccnc1
EC50 [13]: 9.03 µM (active)
EC50 [14]: 3.14 µM (active)
AC50 (HEK293 [15]): 7.53 µM (active)
IC50 [16]: 3.67 µM (active)
AC50 (INS1): 0.794 µM (active)
IC50 (Nonstructural protein 1): 12.1 µM (active)
EC50 [17]: > 160 µM (inactive)
EC50 [18]: 1.3 µM (active)
EC50 (cells [19]): 8.55 µM (active)
EC50 (cells [20]): > 350 µM (not active)

Cc1c(Cc2ccccc2)c(=O)oc2cc(O)cc(O)c12
IC50 (cells [21]): 36.1 µM (active)

Cc1ccc(CCC(=O)Nc2ncc(Cc3cc(Cl)ccc3Cl)s2)o1
IC50 [22]: 7.27 µM (active)
AC50 [23]: 0.251 µM (active)
IC50 [24]: 9.88 µM (active)
AC50 [25]: 34.7 µM (active)
AC50 [26]: 7.96 µM (active)
